{"source": "patent US20160320417A1", "about": "“METHODS AND KITS FOR DETERMINING RISK FOR DEVELOPING ALZHEIMER'S DISEASE AND PREVENTION OR TREATMENT THEREOF” (Loma Linda University, priority 2013, published 2016)", "key": {"[1]": {"details": "clinical trials, cited from earlier work; for mitigation of clinical AD progression: drugs aimed at preventing Aβ aggregates from forming into SPs"}, "peripheral blood cells": {"test_system": "peripheral blood cells", "test": "filipin staining of peripheral blood cells measured by flow cytometry after inducing cholesterol dysregulation", "format": "cell-based", "details": "peripheral blood cells (PBCs) treated with the compound; FIG. 7", "from_the_text": "In some embodiments, peripheral blood cells can be isolated and filipin levels measured by flow cytometry. This can allows for the cells to be isolated inexpensively and at minimal risk to the patient from simple venipuncture rather than requiring the invasive punch biopsy method for collection of fibroblasts as used and described in the results presented herein. A venipuncture can be performed with a venipuncture assembly including, for example, but not limited to, a plastic hub, a hydrodermic needle, a vacuum tube, a syringe, a butterfly needle, and/or other blood collection or vanipuncture devices known in the art. Accordingly, the ability to isolate peripheral blood cells and measure the filipin levels by flow cytometry can facilitate the commercialization of the testing procedure and techniques described herein for preventing and detecting disease. The isolation of peripheral blood cells and measuring of the filipin levels by flow cytometry was tested in two ways. […] Cholesterol dysregulation was induced by treating the cells with Ul 8666A, a compound that inhibits cholesterol synthesis and intracellular trafficking."}}}
{"smiles": "NCCCS(=O)(=O)O", "note": "[homotaurine]", "values": [{"measurement": "mitigation of clinical AD progression", "setting": "[1]", "value": "failed to mitigate clinical AD progression"}]}
{"smiles": "CCN(CC)CCO[C@H]1CC[C@@]2(C)C(=CC[C@@H]3[C@@H]2CC[C@]2(C)C(=O)CC[C@@H]32)C1", "note": "[U18666A]", "values": [{"measurement": "effect on filipin staining (filipin fluorescence)", "setting": "peripheral blood cells", "value": "dose-dependent effect"}]}
{"smiles": "O[C@H]1[C@H](O)[C@@H](O)[C@H](O)[C@@H](O)[C@@H]1O", "note": "[scyllo-inositol]", "values": [{"measurement": "mitigation of clinical AD progression", "setting": "[1]", "value": "failed to mitigate clinical AD progression"}]}
{"smiles": "C[C@@H](C(=O)O)c1ccc(-c2ccccc2)c(F)c1", "note": "[tarenflurbil]", "values": [{"measurement": "benefit to cognitive function", "setting": "[1]; compounds targeting γ-secretase, even when reducing Aβ levels", "value": "no benefit to cognitive function"}]}
